# Measured values taken from US5470859A (priority 1989, dated 1995).
# Structures can show the parent of a compound that is named as a salt. Where two headings read alike, the source gives them in different places.
# What was measured:
# muscarinic receptors [1] = experiment: Radio ligand binding: displacement of the muscarinic agonist 3H-Oxotremorine-M (3H-OXO-M), rat cerebral cortex; design: species or system Hooded Lister rats; conditions: 2 nM 3H-OXO-M, rat cerebral cortex membranes, 2 mM magnesium chloride, 37° C., 30 min
# muscarinic receptors [2] = assay type: binding, Hooded Lister rats; conditions: 0.27 nM 3H-QNB, rat cerebral cortex membranes, 37° C., 30 min
SMILES,IC50 (muscarinic receptors [1]),IC50 (muscarinic receptors [2])
"Nc1noc(/C=C2\CN3CCC2C3)n1 (racemic) [Example E1, (±) Z 3-([3-Amino-1,2,4-oxadiazol-5-yl]methin)-1-azabicyclo[2.2.1]heptane]",0.0118 µM,3.2 µM
"Cc1noc(/C=C2\CN3CCC2C3)n1 (racemic) [Example E2, (±) Z 3-([3-Methyl-1,2,4-oxadiazol-5-yl]methin)-1-azabicyclo[2.2.1]heptane oxalate salt]",0.03 µM,1.9 µM
"C(=C1CN2CCC1C2)c1cnco1 (racemic) [Example E4, (±)E/Z 3-([1,3-Oxazol-5-yl]methin)-1-azabicyclo[2.2.1]heptane oxalate salt]",0.294 µM,27.9 µM
"C(=C1/CN2CCC1C2)/c1ncco1 (racemic) [Example E5, (±) Z 3-([1,3-Oxazol-2-yl]methin)-1-azabicyclo[2.2.1]heptane]",0.0086 µM,1.8 µM
"Nc1noc(C=C2CC3CCN(C2)C3)n1 (racemic) [Example E6, (±)E/Z 3-([3-Amino-1,2,4-oxadiazol-5-yl]methin)-1-azabicyclo[3.2.1]octane]",0.52 µM,5.7 µM
"C(=C1/CN2CCC1C2)/c1nccs1 (racemic) [Example E10, (±) Z 3-([1,3-Thiazol-2-yl]methin)-1-azabicyclo[2.2.1]heptane oxalate salt]",0.165 µM,2.5 µM
